Measured values as given in PMC6154719 (Molecules : A Journal of Synthetic Chemistry and Natural …, 2017).

Experiments:
Format in all cases: in vitro ADME
[1] = molecular target: T1, AKR1A (Homo sapiens, UniProt P14550); experiment: AKR1A activity in human liver subcellular fraction; settings: 100 µM sesquiterpene, control 8.45 ± 0.90
T1 construct: Frozen liver (both rat and human) was thawed; from tissue; host or cells: human liver cytosolic fraction
T1 sequence (P14550 1-325): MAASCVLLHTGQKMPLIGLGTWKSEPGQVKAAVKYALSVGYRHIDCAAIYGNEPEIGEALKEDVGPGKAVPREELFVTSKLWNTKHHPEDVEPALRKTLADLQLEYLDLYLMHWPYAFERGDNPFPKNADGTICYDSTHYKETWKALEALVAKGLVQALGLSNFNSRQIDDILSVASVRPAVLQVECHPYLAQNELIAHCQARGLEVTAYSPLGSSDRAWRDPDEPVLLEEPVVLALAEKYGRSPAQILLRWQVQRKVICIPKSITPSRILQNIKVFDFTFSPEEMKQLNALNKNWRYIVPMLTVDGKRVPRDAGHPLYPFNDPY
Procedure: (§1) Enzyme activities were assayed in human and rat liver cytosolic and microsomal fractions. The enzyme assays (each performed in 4–8 replicates) were repeated three times (HPLC measurement of CYP activities was repeated only twice, Table 3). Inhibition studies were carried out by incubation of specific substrates in the presence of sesquiterpenes (in the range 0–100 µM).
(§2) The assays of all other enzymes were based on spectrophotometric detection of product formed or detection of decreasing substrate/cofactor levels using microplate reader Tecan Infinite M200 in cytosolic or microsomal fractions. Enzyme activities were determined using slight modifications of previously-published methods: carbonyl reducing enzymes (AKR1A, AKR1C, CBR1 [45], NQO1 [46]), UDP-glucuronosyltransferase (UGT [47]), sulfotransferase (SULT [48]), and cytosolic glutathione-S-transferase (GST [49]).
(§3) Sesquiterpenes CNER, TNER and FAR, non-volatile liquids, were pipetted, and proper concentration was calculated according to density. All compounds were dissolved in DMSO. The final solvent concentration in the inhibition assays was 1%, which had no effect on the enzyme activity (data not shown). Non-enzymatic interference of sesquiterpenes with some compounds in the reaction mixtures (e.g., fluorescence enhancing or quenching) was considered and excluded. All experiments were performed in three replicates, if not stated otherwise.
(§4) CNER, TNER and FAR at a fixed concentration of 100 µM were screened for inhibition of cytosolic AKR1A1, AKR1C, CBR1, NQO1, SULT, and GST, and microsomal CYPs and UGT. The degree of inhibition caused by sesquiterpenes was compared with non-inhibited control reactions, which contained solvent without sesquiterpenes.

[2] = molecular target: T2, AKR1A (Rattus norvegicus, UniProt P51635); experiment: AKR1A activity in rat liver subcellular fraction; settings: 100 µM sesquiterpene, control 3.60 ± 0.13
T2 construct: Frozen liver (both rat and human) was thawed; from tissue; host or cells: rat liver cytosolic fraction
T2 sequence (P51635 1-325): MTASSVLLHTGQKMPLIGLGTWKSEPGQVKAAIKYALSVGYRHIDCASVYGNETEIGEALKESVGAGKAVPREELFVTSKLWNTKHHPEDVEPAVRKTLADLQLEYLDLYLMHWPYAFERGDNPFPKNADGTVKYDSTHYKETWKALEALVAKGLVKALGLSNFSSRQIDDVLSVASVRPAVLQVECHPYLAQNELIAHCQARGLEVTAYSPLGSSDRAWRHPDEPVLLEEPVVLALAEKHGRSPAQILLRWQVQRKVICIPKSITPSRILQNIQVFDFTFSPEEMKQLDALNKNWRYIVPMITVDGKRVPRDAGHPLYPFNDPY
Procedure: as §1, §2, §3, §4

[3] = test system: AKR1C; experiment: AKR1C activity in rat liver subcellular fraction; settings: 100 µM sesquiterpene, control 14.8 ± 1.8
Procedure: as §1, §2, §3, §4

[4] = molecular target: T3, NQO1 (Rattus norvegicus, UniProt P05982); experiment: NQO1 activity in rat liver subcellular fraction; settings: 100 µM sesquiterpene, control 25.3 ± 5.6
T3 construct: Frozen liver (both rat and human) was thawed; from tissue; host or cells: rat liver cytosolic fraction
T3 sequence (P05982 2-274 limits assumed): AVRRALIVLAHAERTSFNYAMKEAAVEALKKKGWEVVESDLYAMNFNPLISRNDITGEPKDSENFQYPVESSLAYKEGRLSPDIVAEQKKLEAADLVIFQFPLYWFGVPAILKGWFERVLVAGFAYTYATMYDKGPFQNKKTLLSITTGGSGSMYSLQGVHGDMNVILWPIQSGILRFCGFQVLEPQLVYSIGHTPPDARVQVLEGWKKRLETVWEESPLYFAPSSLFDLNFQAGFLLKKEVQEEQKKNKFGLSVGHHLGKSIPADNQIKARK
Procedure: as §1, §2, §3, §4

[5] = test system: GST; experiment: GST activity in human liver subcellular fraction; settings: 100 µM sesquiterpene, control 223 ± 19
Procedure: as §1, §2, §3, §4

[6] = test system: SULT; experiment: SULT activity in human liver subcellular fraction; settings: 100 µM sesquiterpene, control 2.73 ± 0.18
Procedure: as §1, §2, §3, §4

[7] = test system: UGT; experiment: UGT activity in human liver subcellular fraction; settings: 100 µM sesquiterpene, control 7.12 ± 0.35
Procedure: as §1, §2, §3, §4

[8] = test system: GST; experiment: GST activity in rat liver subcellular fraction; settings: 100 µM sesquiterpene, control 350 ± 8
Procedure: as §1, §2, §3, §4

[9] = test system: SULT; experiment: SULT activity in rat liver subcellular fraction; settings: 100 µM sesquiterpene, control 8.74 ± 0.52
Procedure: as §1, §2, §3, §4

Compound | Specific activity, AKR1A [1] | Specific activity, AKR1A [2] | Specific activity, AKR1C [3] | Specific activity, NQO1 [4] | Specific activity, GST [5] | Specific activity, SULT [6] | Specific activity, UGT [7] | Specific activity, GST [8] | Specific activity, SULT [9]
C=CC(C)(O)CC/C=C(/C)CCC=C(C)C (stereo not drawn) [CNER, cis-nerolidol] | 6.88 ± 0.29 nmol/mg/min | 3.86 ± 0.47 nmol/mg/min | 14.6 ± 2.1 nmol/mg/min | 21.7 ± 3.6 nmol/mg/min | 209 ± 10 nmol/mg/min | 3.12 ± 0.29 nmol/mg/min | 7.09 ± 0.34 nmol/mg/min | 334 ± 22 nmol/mg/min | 8.74 ± 0.26 nmol/mg/min
CC(C)=CCC/C(C)=C/CC/C(C)=C/CO [FAR, farnesol] | 7.62 ± 0.30 nmol/mg/min | 3.48 ± 0.32 nmol/mg/min | 14.9 ± 1.5 nmol/mg/min | 22.2 ± 3.3 nmol/mg/min | 181 ± 13 nmol/mg/min | 2.72 ± 0.23 nmol/mg/min | 7.49 ± 1.08 nmol/mg/min | 345 ± 20 nmol/mg/min | 8.55 ± 0.30 nmol/mg/min
C=CC(C)(O)CC/C=C(\C)CCC=C(C)C (stereo not drawn) [TNER, trans-nerolidol] | 6.75 ± 0.22 nmol/mg/min | 3.71 ± 0.56 nmol/mg/min | 14.8 ± 1.6 nmol/mg/min | 21.8 ± 2.4 nmol/mg/min | 235 ± 13 nmol/mg/min | 3.20 ± 0.26 nmol/mg/min | 7.08 ± 0.39 nmol/mg/min | 354 ± 37 nmol/mg/min | 8.48 ± 0.28 nmol/mg/min
